SMILES strings stand for the structures. Bounds are passed on as bounds.

The target in one assay is human NAMPT enzyme (His-hNAMPT) (Homo sapiens (Human), UniProt P43490). The assay is described as follows: NAMPT enzymatic inhibition assay (fluorescence, NADH product). The assay is classed as biochemical. The note with it: [BPS]; read-out: NAMPT IC50 (μM) [BPS].
human NAMPT enzyme (His-hNAMPT), sequence (P43490 whole entry): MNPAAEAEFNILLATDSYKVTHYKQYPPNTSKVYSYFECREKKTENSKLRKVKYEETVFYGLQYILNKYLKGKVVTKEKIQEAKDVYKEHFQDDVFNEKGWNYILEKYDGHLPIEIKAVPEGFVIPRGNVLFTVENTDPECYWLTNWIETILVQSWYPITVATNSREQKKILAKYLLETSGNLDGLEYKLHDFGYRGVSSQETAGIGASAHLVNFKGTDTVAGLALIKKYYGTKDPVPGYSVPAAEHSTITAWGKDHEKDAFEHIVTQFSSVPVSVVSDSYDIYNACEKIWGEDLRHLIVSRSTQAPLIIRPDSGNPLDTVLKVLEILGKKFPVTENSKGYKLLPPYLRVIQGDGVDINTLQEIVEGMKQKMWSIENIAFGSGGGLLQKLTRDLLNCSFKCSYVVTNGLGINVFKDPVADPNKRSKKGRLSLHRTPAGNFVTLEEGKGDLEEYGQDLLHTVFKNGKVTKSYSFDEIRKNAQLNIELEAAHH
Usually IC50 stands for the midpoint of a concentration-inhibition curve. Consider `Cc1nc(C)c(C(=O)N2C[C@@H]3[C@@H](CCNC(=O)c4cc5ccncc5o4)[C@@H]3C2)o1` [Example 98, N-(2-((1R,5S,6s)-3-(2,4-dimethyloxazole-5-carbonyl)-3-azabicyclo[3.1.0]hexan-6-yl)ethyl)furo[2,3-c]pyridine-2-carboxamide], for which the IC50 fell in the range of 0.01 to 0.49 µM.

On to `O=C(NCC[C@@H]1[C@H]2CN(C(=O)CC3CCOCC3)C[C@@H]12)c1cc2ccncc2o1` [Example 99, N-(2-((1R,5S,6s)-3-(2-(tetrahydro-2H-pyran-4-yl)acetyl)-3-azabicyclo[3.1.0]hexan-6-yl)ethyl)furo[2,3-c]pyridine-2-carboxamide], for which the concentration for half-maximal inhibition (IC50) was in the range of 0.01 to 0.49 µM.

`O=C(NCC[C@@H]1[C@H]2CN(C(=O)C3CCOCC3)C[C@@H]12)c1cc2ccncc2o1` [Example 100, N-(2-((1R,5S,6s)-3-(tetrahydro-2H-pyran-4-carbonyl)-3-azabicyclo[3.1.0]hexan-6-yl)ethyl)furo[2,3-c]pyridine-2-carboxamide]: the IC50 lay within 0.5 to 0.99 µM.

For `O=C(NCC[C@@H]1[C@H]2CN(C(=O)CC3CCOCC3)C[C@@H]12)c1ccc2nccn2c1` [Example 101, N-(2-((1R,5S,6s)-3-(2-(tetrahydro-2H-pyran-4-yl)acetyl)-3-azabicyclo[3.1.0]hexan-6-yl)ethyl)imidazo[1,2-a]pyridine-6-carboxamide], the IC50 was in the range of 0.01 to 0.49 µM.

As to `O=C(NCC[C@@H]1[C@H]2CN(C(=O)c3ccc(F)cc3)C[C@@H]12)c1ccc2nccn2c1` [Example 102, N-(2-((1R,5S,6s)-3-(4-fluorobenzoyl)-3-azabicyclo[3.1.0]hexan-6-yl)ethyl)imidazo[1,2-a]pyridine-6-carboxamide], the IC50 lay within 0.01 to 0.49 µM.

For the compound `Cc1nc(C)c(C(=O)N2C[C@@H]3[C@@H](CCNC(=O)c4ccc5nccn5c4)[C@@H]3C2)o1` [Example 103, N-(2-((1R,5S,6s)-3-(2,4-dimethyloxazole-5-carbonyl)-3-azabicyclo[3.1.0]hexan-6-yl)ethyl)imidazo[1,2-a]pyridine-6-carboxamide], the half-maximal inhibitory concentration (IC50) was 0.01 to 0.49 µM.

As to `O=C(/C=C/c1cccnc1)NCC[C@@H]1[C@H]2CN(C(=O)CC3CCOCC3)C[C@@H]12` [Example 104], the 50% inhibitory concentration (IC50) lay in the range of 0.01 to 0.49 µM.

As to `Cc1nc(C)c(C(=O)N2C[C@@H]3[C@@H](CCNC(=O)/C=C/c4cccnc4)[C@@H]3C2)o1` [Example 105, (E)-N-(2-((1R,5S,6s)-3-(2,4-dimethyloxazole-5-carbonyl)-3-azabicyclo[3.1.0]hexan-6-yl)ethyl)-3-(pyridin-3-yl)acrylamide], the 50% inhibitory concentration (IC50) fell in the range of 0.01 to 0.49 µM.

As for `O=C(NCC[C@@H]1[C@H]2CN(C(=O)CC3CCOCC3)C[C@@H]12)c1cnc2nccn2c1` [Example 106, N-(2-((1R,5S,6s)-3-(2-(tetrahydro-2H-pyran-4-yl)acetyl)-3-azabicyclo[3.1.0]hexan-6-yl)ethyl)imidazo[1,2-a]pyrimidine-6-carboxamide], the IC50 lay within 0.01 to 0.49 µM.

For `O=C(NCC[C@@H]1[C@H]2CN(C(=O)c3ccc(F)cc3)C[C@@H]12)c1cnc2nccn2c1` [Example 107, N-(2-((1R,5S,6s)-3-(4-fluorobenzoyl)-3-azabicyclo[3.1.0]hexan-6-yl)ethyl)imidazo[1,2-a]pyrimidine-6-carboxamide], the half-inhibitory concentration (IC50) fell in the range of 0.01 to 0.49 µM.

As for `Cc1nc(C)c(C(=O)N2C[C@@H]3[C@@H](CCNC(=O)c4cnc5nccn5c4)[C@@H]3C2)o1` [Example 108, N-(2-((1R,5S,6s)-3-(2,4-dimethyloxazole-5-carbonyl)-3-azabicyclo[3.1.0]hexan-6-yl)ethyl)imidazo[1,2-a]pyrimidine-6-carboxamide], the half-maximal inhibitory concentration (IC50) lay within 0.01 to 0.49 µM.

Turning to `O=C(NCC[C@@H]1[C@H]2CN(C(=O)CC3CCOCC3)C[C@@H]12)c1cc(-c2cccnc2)on1` [Example 109, 5-(pyridin-3-yl)-N-(2-((1R,5S,6s)-3-(2-(tetrahydro-2H-pyran-4-yl)acetyl)-3-azabicyclo[3.1.0]hexan-6-yl)ethyl)isoxazole-3-carboxamide], the half-inhibitory concentration (IC50) lay in the range of 0.01 to 0.49 µM.

On to `O=C(NCC[C@@H]1[C@H]2CN(C(=O)c3ccc(F)cc3)C[C@@H]12)c1cc(-c2cccnc2)on1` [Example 110, N-(2-((1R,5S,6s)-3-(4-fluorobenzoyl)-3-azabicyclo[3.1.0]hexan-6-yl)ethyl)-5-(pyridin-3-yl)isoxazole-3-carboxamide], for which the IC50 is 0.01 to 0.49 µM.

As to `Cc1nc(C)c(C(=O)N2C[C@@H]3[C@@H](CCNC(=O)c4cc(-c5cccnc5)on4)[C@@H]3C2)o1` [Example 111, N-(2-((1R,5S,6s)-3-(2,4-dimethyloxazole-5-carbonyl)-3-azabicyclo[3.1.0]hexan-6-yl)ethyl)-5-(pyridin-3-yl)isoxazole-3-carboxamide], the IC50 lay within 0.01 to 0.49 µM.

As for `O=C(NCC[C@@H]1[C@H]2CN(C(=O)CC3CCOCC3)C[C@@H]12)c1cc2cnccc2[nH]1` [Example 112, N-(2-((1R,5S,6s)-3-(2-(tetrahydro-2H-pyran-4-yl)acetyl)-3-azabicyclo[3.1.0]hexan-6-yl)ethyl)-1H-pyrrolo[3,2-c]pyridine-2-carboxamide], the IC50 was in the range of 0.01 to 0.49 µM.

In the case of `Cc1nc(C)c(C(=O)N2C[C@@H]3[C@@H](CCNC(=O)c4cc5cnccc5[nH]4)[C@@H]3C2)o1` [Example 113, N-(2-((1R,5S,6s)-3-(2,4-dimethyloxazole-5-carbonyl)-3-azabicyclo[3.1.0]hexan-6-yl)ethyl)-1H-pyrrolo[3,2-c]pyridine-2-carboxamide], the IC50 lay in the range of 0.01 to 0.49 µM.

Take `O=C(/C=C/c1cccnc1)NCC[C@@H]1[C@H]2CN(c3ccccc3)C[C@@H]12` [Example 117, (E)-N-(2-((1R,5S,6s)-3-phenyl-3-azabicyclo[3.1.0]hexan-6-yl)ethyl)-3-(pyridin-3-yl)acrylamide]: the IC50 fell in the range of 0.01 to 0.49 µM.

As for `O=C(NCC[C@@H]1[C@H]2CN(c3ncccn3)C[C@@H]12)c1ccc2nccn2c1` [Example 118, N-(2-((1R,5S,6s)-3-(pyrimidin-2-yl)-3-azabicyclo[3.1.0]hexan-6-yl)ethyl)imidazo[1,2-a]pyridine-6-carboxamide], the half-inhibitory concentration (IC50) lay in the range of 0.01 to 0.49 µM.

As to `O=C(NCC[C@@H]1[C@H]2CN(c3ncccn3)C[C@@H]12)c1cc2ccncc2o1` [Example 119, N-(2-((1R,5S,6s)-3-(pyrimidin-2-yl)-3-azabicyclo[3.1.0]hexan-6-yl)ethyl)furo[2,3-c]pyridine-2-carboxamide], the IC50 fell in the range of 0.01 to 0.49 µM.

`O=C(NCC[C@@H]1[C@H]2CN(c3nc4ccccc4s3)C[C@@H]12)c1cc2ccncc2o1` [Example 120, N-(2-((1R,5S,6s)-3-(benzo[d]thiazol-2-yl)-3-azabicyclo[3.1.0]hexan-6-yl)ethyl)furo[2,3-c]pyridine-2-carboxamide]: the half-maximal inhibitory concentration (IC50) lay within 0.01 to 0.49 µM.

For the compound `O=C(NCC[C@@H]1[C@H]2CN(c3cccc4ccccc34)C[C@@H]12)c1cc2ccncc2o1` [Example 121, N-(2-((1R,5S,6s)-3-(naphthalen-1-yl)-3-azabicyclo[3.1.0]hexan-6-yl)ethyl)furo[2,3-c]pyridine-2-carboxamide], the half-maximal inhibitory concentration (IC50) lay in the range of 0.01 to 0.49 µM.

Turning to `O=C(NCC[C@@H]1[C@H]2CN(c3ncc4ccccc4n3)C[C@@H]12)c1cc2ccncc2o1` [Example 122, N-(2-((1R,5S,6s)-3-(quinazolin-2-yl)-3-azabicyclo[3.1.0]hexan-6-yl)ethyl)furo[2,3-c]pyridine-2-carboxamide], the concentration for half-maximal inhibition (IC50) lay in the range of 0.01 to 0.49 µM.

For the compound `O=C(/C=C/c1cccnc1)NCC[C@@H]1[C@H]2CN(c3ncccn3)C[C@@H]12` [Example 123, (E)-3-(pyridin-3-yl)-N-(2-((1R,5S,6s)-3-(pyrimidin-2-yl)-3-azabicyclo[3.1.0]hexan-6-yl)ethyl)acrylamide], the IC50 was in the range of 0.01 to 0.49 µM.

Consider `O=C(/C=C/c1cccnc1)NCC[C@@H]1[C@H]2CN(c3nc4ccccc4s3)C[C@@H]12` [Example 124, (E)-N-(2-((1R,5S,6s)-3-(benzo[d]thiazol-2-yl)-3-azabicyclo[3.1.0]hexan-6-yl)ethyl)-3-(pyridin-3-yl)acrylamide], for which the concentration for half-maximal inhibition (IC50) is 0.01 to 0.49 µM.

Turning to `O=C(/C=C/c1cccnc1)NCC[C@@H]1[C@H]2CN(c3ncc4ccccc4n3)C[C@@H]12` [Example 125, (E)-3-(pyridin-3-yl)-N-(2-((1R,5S,6s)-3-(quinazolin-2-yl)-3-azabicyclo[3.1.0]hexan-6-yl)ethyl)acrylamide], the IC50 lay in the range of 0.01 to 0.49 µM.

On to `O=C(/C=C/c1cccnc1)NCC[C@@H]1[C@H]2CN(c3cccc4ccccc34)C[C@@H]12` [Example 126, (E)-N-(2-((1R,5S,6s)-3-(naphthalen-1-yl)-3-azabicyclo[3.1.0]hexan-6-yl)ethyl)-3-(pyridin-3-yl)acrylamide], for which the 50% inhibitory concentration (IC50) was in the range of 0.01 to 0.49 µM.

As to `O=C(/C=C/c1cccnc1)NCC[C@@H]1[C@H]2CN(c3ccc4ccccc4c3)C[C@@H]12` [Example 127, (E)-N-(2-((1R,5S,6s)-3-(naphthalen-2-yl)-3-azabicyclo[3.1.0]hexan-6-yl)ethyl)-3-(pyridin-3-yl)acrylamide], the IC50 lay in the range of 0.01 to 0.49 µM.

For `O=C(/C=C/c1cccnc1)NCC[C@@H]1[C@H]2CN(c3cccc(F)c3)C[C@@H]12` [Example 128, (E)-N-(2-((1R,5S,6s)-3-(3-fluorophenyl)-3-azabicyclo[3.1.0]hexan-6-yl)ethyl)-3-(pyridin-3-yl)acrylamide], the IC50 fell in the range of 0.01 to 0.49 µM.

The assay is the same for the next values; noted with them: [HDB]; read-out: NAMPT IC50 (μM) [HDB].
Consider `Cc1nc(C)c(C(=O)N2C[C@@H]3[C@@H](CCNC(=O)c4cc5ccncc5s4)[C@@H]3C2)o1` [Example 114, N-(2-((1R,5S,6s)-3-(2,4-dimethyloxazole-5-carbonyl)-3-azabicyclo[3.1.0]hexan-6-yl)ethyl)thieno[2,3-c]pyridine-2-carboxamide], for which the 50% inhibitory concentration (IC50) fell in the range of 0.01 to 0.49 µM.

Regarding `NC(=O)c1cccc(C(=O)N2C[C@@H]3[C@@H](CCNC(=O)/C=C/c4cccnc4)[C@@H]3C2)c1` [Example 115, 3-((1R,5S,6s)-6-(2-((E)-3-(pyridin-3-yl)acrylamido)ethyl)-3-azabicyclo[3.1.0]hexane-3-carbonyl)benzamide], the IC50 is < 0.01 µM.

For the compound `NC(=O)c1cccc(C(=O)N2C[C@@H]3[C@@H](CCNC(=O)c4cc5cnccc5[nH]4)[C@@H]3C2)c1` [Example 116, N-(2-((1R,5S,6s)-3-(3-carbamoylbenzoyl)-3-azabicyclo[3.1.0]hexan-6-yl)ethyl)-1H-pyrrolo[3,2-c]pyridine-2-carboxamide], the half-inhibitory concentration (IC50) fell in the range of 0.01 to 0.49 µM.

(Values after patent US12421210B2, “Fused bicyclic heterocycles as therapeutic agents” (NEW YORK UNIVERSITY, priority 2018, dated 2025).)
